Results on one molecule are retold here after patent US10654834B2 (Venenum Biodesign, LLC, priority 2016, dated 2020).

Like-named read-outs stand apart in the source and are kept apart here.

Series [1] is described as follows: Bile weight after a single oral administration in DIO mice. The format is in vivo, mouse. Particulars: 30 mg/kg + sitagliptin 10 mg/kg p.o., 6, 12, 18, 24 h. As to the method:
Bile Weight after a Single Oral Administration of the Compound
In this study, we evaluated if the observed GLP-1 elevation (induced by the compounds of the present invention) may be associated with gallbladder filling. We treated mice with Compound 268 and monitored the bile weight (a measure that indicated gallbladder filling) to determine if the compound retained more bile in the gallbladder as compared to the control mice (i.e., vehicle alone). A time course study was performed to measure weight of the bile aspirated from the gallbladder after oral administration of Compound 268 (30 mg/kg) in high fat diet induced obese (DIO) mice. In this study, GLP-1 levels were also measured at each time point (FIG. 9).
Approximately 12 week old DIO male mice (obtained from Taconic) were acclimated in the testing facility for over two weeks. The mice were provided a high fat diet [Research Diet D12492 (60% Fat kcal)] while in the testing facility. […] The blood samples were distributed as follows: 150-200 μL of blood were placed in an EDTA K^2+ tube containing 5 μL of 40 mg/mL aprotinin (Sigma A1153) and 1 μL of 10 mM sitagliptin (Sigma 58576) to be used for GLP-1 measurements; the remaining blood (≥250 μL) was placed in an EDTA K^2+ tube and plasma was processed for analytical chemistry and analyzed by LCMS/MS method as described in Example 81. […]

Series [2] in a line: Comparison of PK in DIO mice and lean mice. The format is in vivo, mouse. Particulars: for Cmax / AUC(0-t) / Tmax: mouse, plasma; for AUC(0-t): read-out: AUC (0→4 h). As to the method:
Comparison of PK in DIO Mice and Lean Mice
The PK characteristics of Compound 268 were examined in non-fasted lean C57BL/6N and DIO mice (Taconic). Compound 268 was orally administered to both groups at 10 mg/kg by oral gavage and plasma concentration of the compound was determined as described in Example 81.
In addition, PK parameters were determined for Compound 268 (i.e., Cmax, Tmax, and AUC) following oral administration in four groups of mice: (i) fasted lean mice; (ii) non-fasted lean mice; (iii) non-fasted DIO mice; and (iv) lean mice receiving ABT.
The ABT treatment confirms that the low Cmax value of Compound 268 is attributed to […].

Setting [3] is: C57BL/6N, po, 10 mg/kg, Non-fasted DIO mice, oral (Table 58).
Setting [4] is: C57BL/6N, po, 10 mg/kg, Non-fasted Lean mice, oral (Table 58).
Setting [5] is: po, 10 mg/kg, Fasted Lean mice, oral (Table 58).
The mark [6] stands for this setting: po, 10 mg/kg, lean mice receiving ABT (150 mg/kg), oral (Table 58).

Turning to `N#Cc1ccc(CCNC(=O)[C@@H]2CCN2c2cc(N3CCC(CCNC(=O)NCCC(=O)O)CC3)nc(C(F)(F)F)n2)cc1` [Compound 268, (S)-3-(3-(2-(1-(6-(2-((4-cyanophenethyl)carbamoyl)azetidin-1-yl)-2-(trifluoromethyl)pyrimidin-4-yl)piperidin-4-yl)ethyl)ureido)propanoic acid], in series [1], the bile weight result was “did not cause any significant increase in bile weight”. Also, the maximum concentration (Cmax) was found to be 0.6 nM in series [2] (C57BL/6N, po, 10 mg/kg, DIO mice, Non-fasted PK, p.o. (Table 57)); 2.1 nM in series [2] (C57BL/6N, po, 10 mg/kg, Lean mice, Non-fasted PK, p.o. (Table 57)); 0.57 nM in series [2] (setting [3]); 2.1 nM in series [2] (setting [4]); 12 nM in series [2] (setting [5]); 4.2 nM in series [2] (setting [6]). Further, the AUC(0-t) came out at 0.76 ng·h/mL in series [2] (setting [3]), 2.9 ng·h/mL in series [2] (setting [4]), 18 ng·h/mL in series [2] (setting [5]) and 5.1 ng·h/mL in series [2] (setting [6]). In addition, the Tmax turned out to be 60 min in series [2] (C57BL/6N, po, DIO mice, Non-fasted PK, 10 mg/kg, p.o. (Table 57)); 15 min in series [2] (10 mg/kg, Fasted Lean mice, oral (Table 58)); 30 min in series [2] (lean mice receiving ABT (150 mg/kg), oral (Table 58)). Further, the “Cmax profile in fasted lean, non-fasted lean, non-fasted DIO mice” value in series [2] (oral administration) is “low Cmax profile”.

One may read the Cmax as the peak of the concentration-time curve. Broadly, the Tmax is the time at which the peak concentration occurs.
